# The supplement of paper PMC11208160
# Experiment: recombinant barcode read abundance after kanamycin selection (control-corrected) (log10(CPM+1)); higher = more efficient recombination; sequences stand for … in AGTGCAGAGAAAATCGGCCAGTTTTCTCTGCCTGCAGTCCGCATGCCGT…AGATTTATGCAGCGGACTGCCTTTCTCCCAAAGTGATAAACCGGACAGTATCATGGACCGGTTTTCCCGGTAATCCGTATTTGCAAGGTTGGTTTCACT; site = the 11-nt target
# Protocol: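 Pooled E. coli target-specificity screen for the IS621 bridge recombinase. Each library plasmid pairs an 11-nt target (CT core) with a bridge RNA whose target-binding loop (9-nt LTG + 4-nt RTG) is reprogrammed; the rest of the 177-nt WT IS621 bridge RNA scaffold is fixed. The plasmid is co-electroporated with a WT donor plasmid; recombinase is induced with 0.1 mM IPTG and recombinants are selected on kanamycin. Recombinant barcodes are sequenced, converted to CPM, averaged over two biological replicates and corrected by the unselected control CPM. Molecule = full bridge RNA written as DNA: LTG = specificity nt 1-9, RTG = reverse complement of specificity nt 8-11, in the WT scaffold.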
# 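Note: IS621 recombinase and bridge RNA in Escherichia coli cells.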
row,Sequence,recombinant barcode read abundance (log10)
1,ACTCTAACTTGGGTTCTAACCTGTTGCTT (site ACTGTAACTAA),0.0269
2,ACTCTAACTTGGGTTCTAACCTGTTGCTT (site ACTTTAACTAA),0.0201
3,ACTGGTTCTTGGGTTCTAACCTGTTGCCG (site ACTGGTTCTCG),0.696
4,ACTGGTTCTTGGGTTCTAACCTGTTGCCG (site TACTCACCTAA),0.0451
5,ACTGTCACTTGGGTTCTAACCTGTTGCGG (site ACTGTCACTCC),3.28
6,ACTGTCACTTGGGTTCTAACCTGTTGCGG (site GTGTATTCTAG),0.046
7,ACTTAGACTTGGGTTCTAACCTGTTGCCT (site ACTTAGACTAG),1.02
8,ACTTAGACTTGGGTTCTAACCTGTTGCCT (site ACTTAGACTCG),0.313
9,ACTTAGACTTGGGTTCTAACCTGTTGCCT (site ACTTAGACTGG),0.258
10,ACTTAGACTTGGGTTCTAACCTGTTGCCT (site ACTTAGACTTG),0
11,ACTTAGACTTGGGTTCTAACCTGTTGCGG (site ACTTAGACTCC),2.56
12,ACTTAGACTTGGGTTCTAACCTGTTGCGG (site TCTTAGACTCC),0.416
13,ACTTAGCCTTGGGTTCTAACCTGTTGCCT (site ACTTAGCCTAG),1.33
14,ACTTAGCCTTGGGTTCTAACCTGTTGCCT (site ACTTAGCCTAT),0.0989
15,ACTTCCACTTGGGTTCTAACCTGTTGCCT (site ACTTCCACTAG),0.613
16,ACTTCCACTTGGGTTCTAACCTGTTGCCT (site CCTTCCACTAG),0.0483
17,ACTTCCACTTGGGTTCTAACCTGTTGCCT (site GCTTCCACTAG),0.0573
18,ACTTCCACTTGGGTTCTAACCTGTTGCCT (site TCTTCCACTAG),0.111
19,ACTTCTACTTGGGTTCTAACCTGTTGCTA (site ACATCTACTTA),0.141
20,ACTTCTACTTGGGTTCTAACCTGTTGCTA (site ACTTCTACTTA),0.0751

row,Sequence,recombinant barcode read abundance (log10)
1,ACTTGAACTTGGGTTCTAACCTGTTGCCT (site ACATGAACTAG),0.419
2,ACTTGAACTTGGGTTCTAACCTGTTGCCT (site ACCTGAACTAG),0.0239
3,ACTTGAACTTGGGTTCTAACCTGTTGCCT (site ACGTGAACTAG),0.146
4,ACTTGAACTTGGGTTCTAACCTGTTGCCT (site ACTTGAACTAG),0.383
5,ACTTGAACTTGGGTTCTAACCTGTTGCTT (site ACTTGAACTAA),0.0959
6,ACTTGAACTTGGGTTCTAACCTGTTGCTT (site ACTTTAGCTAA),0.0785
7,ACTTGAGCTTGGGTTCTAACCTGTTGCAT (site ACTTGAGCTAT),1.36
8,ACTTGAGCTTGGGTTCTAACCTGTTGCAT (site TAGACTCCTTG),0.232
9,ACTTTAACTTGGGTTCTAACCTGTTGCTT (site ACTATAACTAA),0.185
10,ACTTTAACTTGGGTTCTAACCTGTTGCTT (site ACTCTAACTAA),0.229
11,ACTTTAACTTGGGTTCTAACCTGTTGCTT (site ACTGTAACTAA),0.0934
12,ACTTTAACTTGGGTTCTAACCTGTTGCTT (site ACTTTAACTAA),0.217
13,ACTTTAGCTTGGGTTCTAACCTGTTGCAG (site ACATTAGCTTT),0.056
14,ACTTTAGCTTGGGTTCTAACCTGTTGCAG (site ACTTTAGCTCT),0.694
15,ACTTTGCCTTGGGTTCTAACCTGTTGCCT (site ACATTGCCTAG),0.0554
16,ACTTTGCCTTGGGTTCTAACCTGTTGCCT (site ACCTTGCCTAG),0.0879
17,ACTTTGCCTTGGGTTCTAACCTGTTGCCT (site ACGTTGCCTAG),0.0319
18,ACTTTGCCTTGGGTTCTAACCTGTTGCCT (site ACTTTGCCTAG),0.953
19,AGAAAGTCTTGGGTTCTAACCTGTTGCGT (site AGAAAGTCTAC),2.36
20,AGAAAGTCTTGGGTTCTAACCTGTTGCGT (site AGAGAGTCTAG),0.363

row,Sequence,recombinant barcode read abundance (log10)
1,AGAAATACTTGGGTTCTAACCTGTTGCCG (site AGAAATACTCG),1.07
2,AGAAATACTTGGGTTCTAACCTGTTGCCG (site GTCCTACCTTA),0.0574
3,AGAACAACTTGGGTTCTAACCTGTTGCCT (site AGAACAACTAG),0.388
4,AGAACAACTTGGGTTCTAACCTGTTGCCT (site AGCACAACTAG),0.035
5,AGAACAACTTGGGTTCTAACCTGTTGCCT (site AGGACAACTAG),0.456
6,AGAACAACTTGGGTTCTAACCTGTTGCCT (site AGTACAACTAG),0.102
7,AGAACTACTTGGGTTCTAACCTGTTGCCA (site AGAACTACTTG),0.0417
8,AGAACTACTTGGGTTCTAACCTGTTGCCA (site CTCGTGTCTAT),0.0514
9,AGAAGTACTTGGGTTCTAACCTGTTGCGG (site AGAAGTACTCC),1.86
10,AGAAGTACTTGGGTTCTAACCTGTTGCGG (site GTAAGTACTCC),0.0235
11,AGAATATCTTGGGTTCTAACCTGTTGCCT (site AGAATATCTAG),0.834
12,AGAATATCTTGGGTTCTAACCTGTTGCCT (site AGATTATCTAG),0.193
13,AGACATCCTTGGGTTCTAACCTGTTGCTT (site AGACATCCTAA),0.948
14,AGACATCCTTGGGTTCTAACCTGTTGCTT (site AGACCTCCTAA),0.0971
15,AGACATCCTTGGGTTCTAACCTGTTGCTT (site AGACGTCCTAA),0.0527
16,AGACATCCTTGGGTTCTAACCTGTTGCTT (site AGACTTCCTAA),0.195
17,AGACCACCTTGGGTTCTAACCTGTTGCCT (site AAACCACCTAG),0.383
18,AGACCACCTTGGGTTCTAACCTGTTGCCT (site ACACCACCTAG),0.234
19,AGACCACCTTGGGTTCTAACCTGTTGCCT (site AGACCACCTAG),1.82
